# The NIST ThermoML archive (doi:10.1021/je9002515)
# ± gives the expanded uncertainty stated by the source.
# How the values were obtained:
# [1] = xn = mol fraction of the nth substance listed; conditions: 101 kPa, Liquid, Alternating current cell with electrodes, x2 = 0
# [2] = 101 kPa, Liquid, Alternating current cell with electrodes
electrical conductivity ([1]; 303.15 K),electrical conductivity ([1]; 313.15 K),electrical conductivity ([1]; 323.15 K),electrical conductivity ([1]; 333.15 K),electrical conductivity ([1]; 343.15 K),electrical conductivity ([1]; 353.15 K),electrical conductivity ([1]; 363.15 K),electrical conductivity ([1]; 373.15 K),electrical conductivity ([1]; 383.15 K),electrical conductivity ([1]; 393.15 K),electrical conductivity ([2]; 303.15 K),electrical conductivity ([2]; 313.15 K),electrical conductivity ([2]; 323.15 K),electrical conductivity ([2]; 333.15 K),electrical conductivity ([2]; 343.15 K),electrical conductivity ([2]; 353.15 K),electrical conductivity ([2]; 363.15 K),electrical conductivity ([2]; 373.15 K),electrical conductivity ([2]; 383.15 K),electrical conductivity ([2]; 393.15 K),SMILES
0.0149 ± 0.0024 S/m,0.0195 ± 0.0031 S/m,0.024 ± 0.0038 S/m,0.0307 ± 0.0049 S/m,0.04 ± 0.0064 S/m,0.0462 ± 0.0074 S/m,0.0508 ± 0.0081 S/m,0.0534 ± 0.0086 S/m,0.0544 ± 0.0087 S/m,0.0518 ± 0.0083 S/m,–,–,–,–,–,–,–,–,–,–,"CC(=O)N(C)C [N,N-dimethylethanamide] + CNC(C)=O"
–,–,–,–,–,–,–,–,–,–,0.0324 ± 0.0052 S/m,0.0447 ± 0.0072 S/m,0.0614 ± 0.0098 S/m,0.0775 ± 0.012 S/m,0.105 ± 0.017 S/m,0.129 ± 0.021 S/m,0.165 ± 0.026 S/m,0.192 ± 0.031 S/m,0.219 ± 0.035 S/m,0.247 ± 0.04 S/m,CNC(C)=O [N-methylacetamide]
–,–,–,–,–,–,–,–,–,–,0.0149 ± 0.0024 S/m,0.0195 ± 0.0031 S/m,0.024 ± 0.0038 S/m,0.0307 ± 0.0049 S/m,0.04 ± 0.0064 S/m,0.0462 ± 0.0074 S/m,0.0508 ± 0.0081 S/m,0.0534 ± 0.0086 S/m,0.0544 ± 0.0087 S/m,0.0518 ± 0.0083 S/m,"CC(=O)N(C)C [N,N-dimethylethanamide]"
